Data from patent US5719287A, “Intermediates for inhibitors of HIV protease and method of preparation thereof” (Eli Lilly and Company, priority 1995, dated 1998).
Where two headings read alike, the source gives them in different places.

Target: T1, HIV-1 protease (Human immunodeficiency virus type 1 group M subtype B, UniProt P04585)
T1 construct: Purified HIV-1 protease was obtained as described below; made in house; host or cells: E. coli K12 L507/pHP10D (NRRL B-18560)
Assay: biochemical
Conditions: for IC50: read-out: Fluorescence Assay IC50 (converted)
Procedure: N^α -Biotin-[…]Ne-FITC)-OH
The purified peptide was labeled as follows with a fluorescent marker at the C-terminal end for use in the assay. N^α -Biotin-Gly-Ser-Gln-Asn-Tyr-Pro-lle-Val-Gly-Lys-OH (1.206 g, 0.936 mmoles) was dissolved in 100 mL of 0.1M sodium borate, pH 9.5 with stirring. Then, 3 g of fluorescein isothiocyanate (7.7 mmol) was dissolved in 15 mL dimethyl sulfoxide and the solution added to the reaction in 10 equal portions over the course of a two hour period. The reaction was allowed to proceed for a further one hour after the final addition had been made. The pH of the solution was adjusted to 3 with 5N HCl. A precipitate formed which was removed from the reaction by centrifugation.
Fluorescence HIV-1 Protease Inhibitor Assay Procedure.
To each well of a round bottom, 96-well plate is added 20 μl of the Enzyme Solution followed by 10 μl of the compound to be evaluated in 20% aqueous DMSO. Purified HIV-1 protease was obtained as described below. The solution is incubated for one hour at room temperature and then 20 μl of a solution of the substrate N^α -Biotin-[…]N^e -FITC)-OH, in MES-ALB buffer (1.5 μl/ml) is added to each well. The solutions are incubated for 16 hours at room temperature and thereafter to each well is added 150 μl of MES-ALB buffer.
To each well of a 96-well Pandex plate is added 25 μl of the Avidin Coated Beads Solution. Next, 25 μl of the diluted incubation solutions, described above, are added to each well of the Pandex plate. The solutions are mixed well and the plates are loaded into a Pandex® machine, washed, evacuated and read. Sample detection was performed by excitation at 485 nm and reading the resulting epifluorescence at 535 nm.
A culture of E. coli K12 L507/pHP10D was grown to mid-log phase at 32° C. in LB media containing 12.5 μg/ml tetracycline. The cultivation temperature was quickly elevated to 40° C. to induce gene expression, and the cells were allowed to grow for 2.5 hours at this temperature before the culture was quickly chilled on ice. The cells were centrifuged and the cell pellet was resuspended in 20 ml 50 mmol MES buffer (pH 6.0) containing 1 mmol EDTA, 1 mmol DTT, 1 mmol PMSF, and 10% glycerol (Buffer A). Cells were lysed by sonication using a Fischer Model 300 Dismembrator and a microtip probe. […] Enzymatic activity was measured by HPLC using the synthetic peptide SQNYPIV as described in Margolin et al., Biochem. Biophys. Res. Commun., 167, 554-560 (1990); the production of the pl peptide (SQNY) was measured.
Active fractions were pooled, made 1.2M in ammonium sulfate, and applied to a hexyl agarose column (2.0×18 cm) equilibrated in Buffer A containing 1.2M ammonium sulfate. The sample, in 125 ml (1.85 mg/ml), was loaded at a flow rate of 1 ml/min at 4° C. […] The column was then washed isocratically in Buffer A for 120 min. Active fractions were pooled, concentrated to 10 ml using an Amicon stirred cell with a YM-10 membrane, and applied at 1 ml/min to a MonoS cation exchange column (1.0×10 cm) equilibrated in Buffer A. After washing isocratically for 30 min, protease was eluted using a linear gradient of 0-0.45M NaCl in Buffer A over 40 min followed by an isocratic wash with Buffer A containing 0.45M NaCl over 30 min. Chromatography was performed at 25° C.
Pooled active fractions were concentrated to 200 ul using an Amicon stirred cell and a YM-10 membrane, and the protease was then applied to a Superose 6 size exclusion column equilibrated in Buffer A containing 0.1M NaCl. The column was washed isocratically in this buffer at a flow rate of 0.5 ml/min.

[1] = purified HIV-1 protease, MES-ALB buffer pH 5.5, 1 h preincubation, 16 h with substrate, room temperature, IC50 values for Examples 2-70 are standardized relative to Ex 1

SMILES	IC50 [nM]	further results
CC(C)[C@H](NC(=O)c1cnc2ccccc2n1)C(=O)N[C@@H](Cc1ccccc1)[C@H](O)Cc1ccccc1C(=O)NC(C)(C)C [Example 34, [1S-(1R*, 4R*, 5S*)]-N-(1-(1-methylethyl)-2-oxo-3-aza-4-phenylmethyl-5-hydroxy-6-(2-(1-t-butylamino-1-oxomethyl)phenyl)hexyl)-2-quinoxalinyl acetamide]	–	IC50 [1]: 7.55 nM
CC(C)(C)NC(=O)c1ccccc1C[C@@H](O)[C@H](Cc1ccccc1)NC(=O)[C@H](CC(N)=O)NC(=O)c1cc(Cl)c2ccccc2n1 [Example 53, [1S-(1R*, 4R*, 5S*)]-N-(1-(2-amino-2-oxoethyl)-2-oxo-3-aza-4-phenylmethyl-5-hydroxy-6-(2-(1-t-butylamino-1-oxomethyl)phenyl)hexyl)-4-chloroquinolin-2-yl carboxamide]	1.2	–
CC(C)(C)NC(=O)c1cc2ccccc2cc1C[C@@H](O)[C@H](Cc1ccccc1)NC(=O)[C@H](CC(N)=O)NC(=O)c1ccc2ccccc2n1 (relative stereo) [Example 5, 1S-(1R*. 4R*, 5S*)]-N-(1-(2-amino-2-oxoethyl)-2-oxo-3-aza-4-phenylmethyl-5-hydroxy-6-(3-(1-t-butylamino-1-oxomethyl)-2-naphthyl)hexyl)-2-quinolinyl carboxamide]	12.7	–
CC(C)(C)NC(=O)c1ccccc1C[C@@H](O)[C@H](Cc1ccccc1)NC(=O)[C@H](CC(=O)NCc1ncc[nH]1)NC(=O)c1ccc2ccccc2n1 [Example 46, [1S-(1R*, 4R*, 5S*)]-N-(1-(2-(N-2-imidazolylmethyl)amino)-2-oxoethyl)-2-oxo-3-aza-4-phenylmethyl-5-hydroxy-6-(2-(1-t-butylamino-1-oxomethyl)phenyl)hexyl)-2-quinolinyl carboxamide]	1.88	–
CC(C)(C)NC(=O)c1ccccc1C[C@@H](O)[C@H](Cc1ccccc1)NC(=O)[C@H](CCC(=O)O)NC(=O)c1ccc2ccccc2n1 [Example 44, [1S-(1R*, 4R*, 5S*)]-N-(1-(3-hydroxy-3-oxopropyl)-2-oxo-3-aza-4-phenylmethyl-5-hydroxy-6-(2-(1-t-butylamino-1-oxomethyl)phenyl)hexyl)-2-quinolinyl carboxamide]	2.08	–
CC(C)(C)NC(=O)c1ccccc1C[C@@H](O)[C@H](Cc1ccccc1)NC(=O)[C@H](CC(N)=O)NC(=O)OCc1ccccc1 (relative stereo) [Example 11, [2R-(2R*, 3S*, 6S*)]-N-t-butyl-2-(2-hydroxy-3-phenylmethyl-4-aza-5-oxo-6-(2-amino-2-oxomethyl)-6-phenylmethoxycarbonyl)hexyl)benzamide]	–	Fluorescence Assay IC50 [1]: 0.01 µg/mL
CC(C)(C)NC(=O)c1ccccc1C[C@@H](O)[C@H](Cc1ccccc1)NC(=O)[C@H](CCC(N)=O)NC(=O)c1ccc2ccccc2n1 [Example 54, [1S-(1R*, 4R*, 5S*)]-N-(1-(3-amino-3-oxopropyl)-2-oxo-3-aza-4-phenylmethyl-5-hydroxy-6-(2-(1-t-butylamino-1-oxomethyl)phenyl)hexyl)-2-quinolinyl carboxamide]	78.6	–
CC(C)(C)NC(=O)c1ccccc1C[C@@H](O)[C@H](Cc1ccccc1)NC(=O)[C@H](CC(N)=O)NC(=O)c1ccc2cccc(F)c2n1 [Example 52, [1S-(1R*, 4R*, 5S*)]-N-(1-(2-amino-2-oxoethyl)-2-oxo-3-aza-4-phenylmethyl-5-hydroxy-6-(2-(1-t-butylamino-1-oxomethyl)phenyl)hexyl)-8-fluoroquinolin-2-yl carboxamide]	4.62	–
CC(C)(C)NC(=O)c1sccc1C[C@@H](O)[C@H](Cc1ccccc1)NC(=O)[C@H](CC(N)=O)NC(=O)c1ccc2ccccc2n1 [Example 41, [1S-(1R*, 4R*. 5S*) ]-N-(1-(2-amino-2-oxoethyl)-2-oxo-3-aza-4-phenylmethyl-5-hydroxy-6-(2-(1-t-butylamino-1-oxomethyl)thien-3-yl)hexyl)-2-quinolinyl carboxamide]	13	–
CC(C)(C)NC(=O)c1ccccc1C[C@@H](O)[C@H](Cc1ccccc1)NC(=O)[C@H](CC(N)=O)NC(=O)c1ccc2ccccc2[n+]1[O-] [Example 7, [1S-(1R*, 4R*, 5S*)]-N-(1-(2-amino-2-oxoethyl)-2-oxo-3-aza-4-phenylmethyl-5-hydroxy-6-(2-(1-t-butylamino-1-oxomethyl)phenyl)hexyl)-1-oxo-2-quinolinyl carboxamide]	28.8	–
CC(C)c1ccc(C(=O)NC(C)(C)C)c(C[C@@H](O)[C@H](Cc2ccccc2)NC(=O)[C@H](CC(N)=O)NC(=O)c2ccc3ccccc3n2)c1 [Example 68, [1S-(1R*, 4R*, 5S,)]-N-(1-(2-amino-2-oxoethyl)-2-oxo-3-aza-4-phenylmethyl-5-hydroxy-6-(2-(1-t-butylamino-1-oxomethyl)-5-isopropylphenyl)hexyl)-2-quinolinyl carboxamide]	0.23	–
CC(C)(C)NC(=O)c1ccccc1C[C@@H](O)[C@H](Cc1ccccc1)NC(=O)[C@H](CC(N)=O)NC(=O)NCc1cccc2ccccc12 [Example 58, [2R-(2R*, 3S*, 6S*)]-N-t-butyl-2-(2-hydroxy-3-phenylmethyl-4-aza-5-oxo-6-(2-amino-2-oxoethyl)-7-aza-8-oxo-8-(N-naphth-1-ylmethylamino)octyl)benzamide]	2.82	–
Cc1cc2ccccc2nc1C(=O)N[C@@H](CC(N)=O)C(=O)N[C@@H](Cc1ccccc1)[C@H](O)Cc1ccccc1C(=O)NC(C)(C)C [Example 27, [1S-(1R*, 4R*. 5S*) ]-N-(1-(2-amino-2-oxoethyl)-2-oxo-3-aza-4-phenylmethyl-5-hydroxy-6-(2-(1-t-butylamino-1-oxomethyl)phenyl)hexyl)-3-methylquinolin-2-yl carboxamide]	8.18	–
CC(C)(C)NC(=O)c1ccccc1C[C@@H](O)[C@H](Cc1ccccc1)NC(=O)[C@H](CC(N)=O)NC(=O)Cc1ccc2ccccc2c1 [Example 31, [1S-(1R*, 4R*, 5S*)]-N-(1-(2-amino-2-oxoethyl)-2-oxo-3-aza-4-phenylmethyl-5-hydroxy-6-(2-(1-t-butylamino-1-oxomethyl)phenyl)hexyl)-2-naphthyl acetamide]	11.4	–
CC(C)(C)NC(=O)c1ccccc1C[C@@H](O)[C@H](Cc1ccccc1)NC(=O)[C@H](CC(=O)NCc1nc2ccccc2[nH]1)NC(=O)c1ccc2ccccc2n1 [Example 49, [1S-(1R*, 4R*, 5S*)]-N-(1-(2-(N-2-benzimidazolylmethyl)amino)-2-oxoethyl)-2-oxo-3-aza-4-phenylmethyl-5-hydroxy-6-(2-(1-t-butylamino-1-oxomethyl)phenyl)hexyl)-2-quinolinyl carboxamide]	0.676	–
CC(C)(C)NC(=O)c1ccccc1C[C@@H](O)[C@H](Cc1ccccc1)NC(=O)[C@H](CC(N)=O)NC(=O)c1ccc2cc(F)cc(F)c2n1 [Example 59, [1S-(1R*, 4R*, 5S*)]-N-(1-(2-amino-2-oxoethyl)-2-oxo-3-aza-4-phenylmethyl-5-hydroxy-6-(2-(1-t-butylamino-1-oxomethyl)phenyl)hexyl)-6,8-difluoroquinolin-2-yl carboxamide]	–	IC50 [1]: 11.2 nM
CC(C)(C)NC(=O)c1occc1C[C@@H](O)[C@H](Cc1ccccc1)NC(=O)[C@H](CC(N)=O)NC(=O)c1ccc2ccccc2n1 [Example 40, [1S-(1R*, 4R*, 5S*)]-N-(1-(2-amino-2-oxoethyl)-2-oxo-3-aza-4-phenylmethyl-5-hydroxy-6-(2-(1-t-butylamino-1-oxomethyl)fur-3-yl)hexyl)-2-quinolinyl carboxamide]	46.7	–
